Experimental data: paper PMC11678373 (Pharmaceutics, 2024)
Where “and” joins values, the source holds several entries; their conditions need not be identical. Equal entries are not always repeated. Where two headings read alike, the source gives them in different places.

Key:
[1] = Pharmacokinetics of REG, M-2 and M-5 in rats after single oral REG with or without OLA; type: in vivo, male Wistar rats
Protocol: (§1) Healthy, 14-week-old adult male Wistar rats purchased from the Anima Sp. z o. o. SK and ViVARI s.c. (Warszawa, Poland) were used in the study. The animals were housed for one week in a temperature- and humidity-controlled room with a 12-h light/dark cycle and fed a standard diet with free access to fresh water.
(§2) This reduced the number of animals included in the experiment, which is consistent with the 3R concept. The same drugs (same manufacturer, same dose) were administered in the study group IREG+OLA, but from different batches than in the control groups. No other experimental conditions were changed.
(§3) The samples were centrifuged (2880 g, 10 min at 4 °C), and the plasma was stored at −80 °C until analyzed.
A Cortecs UPLC C18 column (2.1 × 50 mm, 1.6 μm) was used in combination with a VanGuard Acquity UPLC BEH C18 pre-column (2.1 × 5 mm, 3/Pk, Waters Corporation). The injection volume was 5 μL, the autosampler temperature was 4 °C, and the column temperature was 40 °C. The composition of mobile phase A was 0.1% aqueous formic acid solution (v/v), and phase B was acetonitrile/methanol and 0.1% aqueous formic acid solution in a ratio of 1:3 (v/v). The total run time was 5 min. The gradient was as follows: 0–0.5 min with 10% B; 0.5–3 min, 95% B; 3–4 min, 95% B; 4–4.1 min, 10% B; 4.1–5 min, 10% B. The flow rate was 0.4 mL/min. Multiple reaction monitoring (MRM) experiments using positive electrospray ionization (ESI) were performed to analyze the samples.
The following settings of the Xevo TQ-S micro mass spectrometer were used: source temperature 150 °C, desolvation temperature 600 °C, nitrogen gas flow 900 L/h, capillary voltage 3.6 kV.
(§4) The values of the pharmacokinetic parameters of OLA, REG, and M-2 and M-5 were determined by non-compartmental analysis with linear interpolation. PKanalix 2023R1 software (Lixoft, Antony, France) was used to calculate the elimination rate constant (kel), the absorption rate constant (ka), the half-life in the elimination phase (t1/2), the area under the concentration–time curve from zero to the last measurable concentration (AUC0–t), the area under the plasma concentration–time curve from zero to infinity (AUC0–∞), the apparent plasma drug clearance (Cl/F), and the apparent volume of distribution (Vd/F). The maximum plasma concentration (Cmax) and the time to reach the Cmax (tmax) were obtained directly from the measured values. All these parameters were presented as arithmetic mean ± standard deviation (SD) and subjected to statistical analysis.

[2] = Pharmacokinetics of OLA in rats after single oral OLA with or without REG; type: in vivo, male Wistar rats
Protocol: as §1, §2, §3
OLA in animal plasma samples was quantified using an Acquity 1-class PLUS ultra-high performance liquid chromatograph coupled to a Xevo TQ-S micro triple quadrupole mass spectrometer (Waters Corporation, 34 Maple Street, Milford, MA, USA). A Cortecs UPLC C18 column (2.1 × 50 mm, 1.6 µm, Waters Corporation, 34 Maple Street, Milford, MA, USA) was used for the chromatographic separation. The column temperature and injection volume were set at 40 °C and 1 µL, respectively. The mobile phase consisted of acetonitrile (eluent A) and 2 mM ammonium acetate in water (eluent B) with 0.1% 98–100% formic acid. The flow rate was kept at 0.3 mL/min. The elution gradient was as follows: 0–3 min, 5% A; 4–5 min, 95% A; 3–5 min, linear from 5% to 95% A; 5–6 min, linear from 95% to 5% A. The mass spectrometer was operated in multiple reaction monitoring mode. Two transitions were monitored for OLA and OLA-d4 as an internal standard (IS): m/z 435.1→367.1 and 435.1→281.0 (qualifier transition) for OLA and m/z 439.1→367.1 and 439.1→281.0 for IS.
as §4

[3] = Long-term stability in plasma (bioanalytical validation); type: physicochemical, rat; settings: plasma QC samples, −20 °C storage
Protocol: The concentrations were diluted in five replicates.
Short-term and long-term stability were tested at −20 °C storage conditions and ambient temperature at processing conditions. For the short term, three cycles of freezing and thawing within three days were applied.
All met ICH acceptance criteria.

[4] = OLA; single oral OLA 100 mg/kg b.w. alone (IIIOLA control, n = 8); mean ± SD; adapted from previous project ref 40; cited from earlier work
[5] = tested on: P-gp; design: method as in earlier work; settings: cited from earlier work
[6] = tested on: BCRP; design: method as in earlier work; settings: cited from earlier work
[7] = tested on: CYP3A4/5; design: method as in PMID 28657402, PMID 27684210; settings: cited from earlier work
[8] = cited from earlier work
[9] = tested on: P-gp vesicles; design: method as in Deng et al. 36; settings: ref Deng et al. 36; cited from earlier work
[10] = tested on: CYP3A; design: method as in Jin et al. 37; settings: competitive inhibition; ref Jin et al. 37; cited from earlier work
[11] = design: method as in Jin et al. 37; settings: ref Jin et al. 37, cited from earlier work; for predicted AUC increase for (S)- and/or (R)-warfarin: via CYP inhibition
[12] = cited from earlier work; remark: listed apart in the source
[13] = co-administration of OLA and metformin in rats; cited from earlier work
[14] = single oral REG 20 mg/kg b.w. alone (IIREG control, n = 8), mean ± SD, adapted from previous project ref 39, cited from earlier work; for AUC0–t / AUC0–∞: metabolite in plasma
[15] = tested on: CYP2C8; settings: cited from earlier work
[16] = tested on: CYP2C9; settings: cited from earlier work
[17] = tested on: CYP3A4; settings: cited from earlier work
[18] = tested on: CYP2D6; settings: cited from earlier work
[19] = tested on: P-glycoprotein; settings: cited from earlier work
[20] = tested on: CYP2B6; settings: cited from earlier work
[21] = tested on: CYP2C19; settings: cited from earlier work

## O=C(c1cc(Cc2n[nH]c(=O)c3ccccc23)ccc1F)N1CCN(C(=O)C2CC2)CC1 [OLA, Olaparib]
[1]; rat model, AUC ratio 3.39
  inhibitor class as perpetrator towards REG, from AUC ratio: moderate inhibitor
[2]; IREG+OLA vs. IIIOLA control
  increase of AUC0–t of OLA after administration of OLA with REG: 3.4 fold
  increase of AUC0–t of OLA by REG: 241.7%
  increase of AUC0–∞ of OLA after administration of OLA with REG: 3.4 fold
  increase of AUC0–∞ of OLA by REG: 240.6%
  increase of Cmax of OLA after administration of OLA with REG: 2.0 fold
  increase of Cmax of OLA by REG: 104.9%
[2]; OLA, single oral OLA 100 mg/kg b.w. + REG 20 mg/kg b.w. (IREG+OLA, n = 8), mean ± SD
  t0.5: 3.01 ± 0.86 (28.6) h
[2]; rats, OLA victim, REG perpetrator
  AUC0–∞ ratio of OLA (study group/control group): 3.39 and 3.41
[3]
  stable in plasma (long-term test): at least 181 days
[4]
  AUC0–t: 28.28 ± 28.16 (99.6) µg × h/mL
  AUC0–∞: 28.58 ± 28.31 (99.1) µg × h/mL
  Cl/F: 7.84 ± 15.21 (193.9) L/h
  Cmax: 8.72 ± 6.80 (78.0) µg/mL
  t0.5: 4.79 ± 6.06 (126.5) h
  tmax: 1.16 ± 0.92 (78.9) h
[5]
  IC50: > 10 µM
[6]
  IC50: > 10 µM
[7]; OLA 10 μM
  time-dependent CYP inhibition: little effect
[7]; OLA 2–200 μM
  time-dependent CYP inhibition: time-dependent CYP3A4/5 inhibitor
[7]; reversible inhibition, OLA 17–500 μM
  IC50: 119 µM
[8]; from a 400 mg dose
  concentration in the gastrointestinal tract: 3683 µM
[9]
  inhibition of atorvastatin transport: weak inhibitor

## Cc1ccc(NC(=O)c2ccc(CN3CCN(C)CC3)cc2)cc1Nc1nc(-c2cccnc2)cs1 [masitinib]
[10]
  Ki: 1.3 µM

## CC(=O)Nc1cccc(-n2c(=O)n(C3CC3)c(=O)c3c(Nc4ccc(I)cc4F)n(C)c(=O)c(C)c32)c1 [trametinib]
[11]
  predicted AUC increase for (S)- and/or (R)-warfarin: ≤ 1.2 fold

## COC(=O)c1ccc2c(c1)NC(=O)/C2=C(\Nc1ccc(N(C)C(=O)CN2CCN(C)CC2)cc1)c1ccccc1 [nintedanib]
[11]
  predicted AUC increase for (S)- and/or (R)-warfarin: ≤ 1.2 fold

## CCC(C)n1ncn(-c2ccc(N3CCN(c4ccc(OCC5COC(Cn6cncn6)(c6ccc(Cl)cc6Cl)O5)cc4)CC3)cc2)c1=O (stereo not drawn) [itraconazole]
[12]; concomitant itraconazole
  increase in AUC of OLA: 170%
  increase in Cmax of OLA: 42%

## CNC(=O)c1ccccc1Sc1ccc2c(/C=C/c3ccccn3)n[nH]c2c1 [axitinib]
[11]
  predicted AUC increase for (S)- and/or (R)-warfarin: ≤ 1.2 fold

## Cc1cc(Nc2cc(N3CCN(C)CC3)nc(Sc3ccc(NC(=O)C4CC4)cc3)n2)[nH]n1 [tozasertib]
[11]
  predicted AUC increase for (S)- and/or (R)-warfarin: ≤ 1.2 fold

## CN(C)C(=N)N=C(N)N [metformin]
[13]
  increase in metformin AUC: 2.6 fold
  increase in metformin Cmax: 2.8 fold

## Clc1ccc(Nc2nnc(Cc3ccncc3)c3ccccc23)cc1 [vatalanib]
[10]
  Ki: 0.2 µM

## NC(=O)c1cc(Oc2ccc(NC(=O)Nc3ccc(Cl)c(C(F)(F)F)c3)c(F)c2)cc[n+]1[O-] [M-5, N-desmethyl-REG-N-oxide]
[1]; IREG+OLA vs. IIREG control
  AUC0–t of metabolite, times higher during combined administration of OLA and REG: 17.83 fold
  AUC0–∞ of metabolite, times higher during combined administration of OLA and REG: 18.82 fold
  Cmax of metabolite, times higher during combined administration of OLA and REG: 16.32 fold
[3]
  stable in plasma (long-term test): ≥ 180 days
[14]
  AUC0–t: 803.19 ± 177.02 (22.0) ng × h/mL
  AUC0–∞: 847.88 ± 178.97 (21.1) ng × h/mL
[15]
  R1 value: > 1.1

## CNC(=O)c1cc(Oc2ccc(NC(=O)Nc3ccc(Cl)c(C(F)(F)F)c3)c(F)c2)cc[n+]1[O-] [M-2, REG-N-oxide]
[1]; IREG+OLA vs. IIREG control
  AUC0–t of metabolite, times higher during combined administration of OLA and REG: 8.86 fold
  Cmax of metabolite, times higher during combined administration of OLA and REG: 7.22 fold
[3]
  stable in plasma (long-term test): ≥ 180 days
[14]
  AUC0–t: 9615.36 ± 2275.41 (23.7) ng × h/mL
  AUC0–∞: 11,469.93 ± 2133.05 (18.6) ng × h/mL
[15]
  R1 value: > 1.1
[16]
  R1 value: > 1.1
[17]
  R1 value: > 1.1
[18]
  R1 value: > 1.1

## CNC(=O)c1cc(Oc2ccc(NC(=O)Nc3ccc(Cl)c(C(F)(F)F)c3)c(F)c2)ccn1 [REG, regorafenib]
[1]; IREG+OLA vs. IIREG control
  increase of AUC0–∞ of REG after OLA administration: 3.38 fold
  increase of t0.5 of REG after OLA administration: 1.82 fold
  increase of tmax of REG after OLA administration: 2.66 fold
  reduction of kel of REG in the study group: 1.77 fold
[1]; REG, single oral REG 20 mg/kg b.w. + OLA 100 mg/kg b.w. (IREG+OLA, n = 8), mean ± SD
  t0.5: 11.65 ± 3.70 (31.7) h
[3]
  stable in plasma (long-term test): ≥ 180 days
[14]; REG
  Vd/F: 2062.53 ± 615.85 (29.7) mL
  tmax: 5.8 ± 2.1 (36.9) h
[8]; 160 mg REG dose, assumed duodenal volume of 250 mL
  estimated duodenal concentration: 1.3 mM
[19]; in vitro, read-out: IC50
  IC50: ~2 µM
[19]; read-out: IC50 for P-gp inhibition
  IC50: 2.2 µM
[10]
  Ki: 20.7 µM
[11]
  predicted effect on the AUCs of apixaban and rivaroxaban: little or no effect
[15]
  R1 value: > 1.1
[20]
  R1 value: > 1.1
[16]
  R1 value: > 1.1
[21]
  R1 value: > 1.1
[17]
  R1 value: > 1.1

## OC(Cn1cncn1)(Cn1cncn1)c1ccc(F)cc1F [fluconazole]
[12]; concomitant fluconazole
  increase in AUC of OLA: 121%
  increase in Cmax of OLA: 14%
